Results from PMC11306024, “Novel metabolite madeirone and neomarinone extracted from Streptomyces aculeoletus as marine antibiofilm and antifouling agents” (Frontiers in Chemistry, 2024).
Converted amounts (≈) assume the structure as drawn.

Assays:
[1] = test system: M. galloprovincialis plantigrade larvae; assay: Mussel plantigrade larvae anti-settlement bioassay; type: in vivo, Mytilus galloprovincialis; settings: 15 h acute exposure, 95% confidence limits in brackets; for EC50: Mytilus galloprovincialis, 15 h, read-out: EC50 [Conf. Limits] anti-settlement
Procedure: The in vivo antimacrofouling activity of compounds (1) and (2) was evaluated against mussel M. galloprovincialis adhesive larvae (plantigrades) in an acute bioassay. Juvenile mussel aggregates were harvested from the intertidal rocky shore during low spring tides at Memória beach, Matosinhos, Portugal. In the laboratory, precisely before the bioassays, mussel plantigrade larvae were meticulously screened and isolated from the juvenile aggregates using a binocular microscope (Olympus SZX2-ILLT, Hamburg, Germany). The isolated larvae were then washed with filtered seawater to eliminate organic debris, and competent plantigrade larvae, characterized by foot exploratory behavior, were selected for the exposure bioassays, following established protocols ([Almeida et al., 2017]; [Almeida et al., 2020]; [Antunes et al., 2019]; [Mabrouk et al., 2020]). Plantigrades were exposed in 24-well polystyrene plates for 15 h in darkness at 18°C. DMSO served as the solvent for the testing compounds in stock and working solutions. The DMSO concentration in the tested solutions was consistently maintained at 0.1%. Each condition was replicated in four wells, with five larvae per well. Two negative controls, one with ultra-pure water and other with DMSO were included in all bioassays, along with a positive control using 0.16 μg/mL CuSO4, as a reference antifouling agent. The anti-settlement bioactivity was assessed based on the presence or absence of fixed byssal threads produced by each individual larva for all tested conditions. […] EC50 values for each compound were calculated using Probit regression analysis. Significance was considered at p < 0.01, and 95% lower and upper confidence limits (95% LCL; UCL). The software IBM SPSS Statistics 28 was used for statistical analysis. The therapeutic ratio (LC50/EC50) was employed to evaluate the effectiveness versus the toxicity of the compounds ([Qian et al., 2009]; [Almeida and Vasconcelos, 2015]).

M. hydrocarbonoclasticus [2] = assay: Antibiofilm activity (inhibition of biofilm formation); type: cell-based, Marinobacter hydrocarbonoclasticus DSM 8798; settings: for Biofilm inhibition, up to (highest over tested concentrations) M. hydrocarbonoclasticus: 0.98-31.25 µg/mL tested; for inhibition at 15.6 µg/mL: 15.60 µg/mL
Procedure: (§1) To assess antimicrofouling activity, we selected five marine bacterial species as models: Marinobacter hydrocarbonoclasticus DSM 8798 (ATCC 49840), C. marina DSM 4741, Phaeobacter inhibens DSM 17,395, Pseusooceanicola batsensis DSM 15,984, and Micrococcus luteus DSM 20030 (ATCC 4698) ([Michael et al., 2016]). These strains, sourced from DSMZ (Leibniz Institute DSMZ—German Collection of Microorganisms and Cell Cultures), were cultured in liquid marine broth (Carl Roth GmbH, Karlsruhe, Germany) with agitation at 180 rpm or on agar-supplemented marine broth. Incubation temperatures were set at 28°C for M. hydrocarbonoclasticus and Cobetia marina, 30°C for P. inhibens and P. batsensis, while M. luteus was maintained at 37°C in Brain Heart Infusion broth (BHI, Becton Dickinson, GmbH, Heidelberg, Germany) under similar agitation conditions.
The antibiofilm potential of compounds (1) and (2) against the five marine bacterial species was investigated in 96-well polystyrene flat-bottom microplates (Nunclon Delta Surface, Thermo Scientific, Roskilde, Denmark), as described previously ([Bauermeister et al., 2019]; [Pereira et al., 2020]). In the initial screening, bacterial overnight cultures were diluted to an OD600 of 0.2 and incubated statically at appropriate temperatures. The cultures were tested at 31.25, 15.60, 7.81, 3.91, 1.95, 0.98 μg/mL concentrations (2-fold serial dilutions) of compounds (1) and (2), solubilized in DMSO, or left untreated. After 24 h (M. hydrocarbonoclasticus, C. marina) or 48 h (P. batsensis, P. inhibens, M. luteus) incubation, OD600 was measured. The planktonic cells and media were discarded, and the wells were washed twice with deionized water. Biofilms were fixed, stained, and quantified by measuring the OD600 after solubilization with acetic acid. Biofilm inhibition percentages were calculated relative to untreated bacterial species, using DMSO as a negative control and CuSO4 (0.16 μg/mL), as a positive control. All assays were performed in triplicate, and the results represent the mean and standard error of the mean (SEM). Statistical analysis was conducted using GraphPad Prism 8.0.2, employing one-way ANOVA followed by Dunnett’s multiple comparisons test against the negative control.

M. hydrocarbonoclasticus [3] = assay: Antibacterial activity (growth inhibition, OD600); type: cell-based, Marinobacter hydrocarbonoclasticus DSM 8798; settings: 24 h
Procedure: as §1
The antibacterial efficacy of compounds (1) and (2) was assessed in 96-well polystyrene flat-bottom microplates (Nunclon Delta Surface, Thermo Scientific, Roskilde, Denmark) following established procedures ([Bauermeister et al., 2019]). In the initial screening, bacterial overnight cultures were diluted to an optical density (OD600nm) of 0.2 and incubated statically at appropriate temperatures. The cultures were treated with the following final concentrations per well: 31.25, 15.60, 7.81, 3.91, 1.95, and 0.98 μg/mL (2-fold serial dilutions) of the compounds, solubilized in DMSO, or left untreated. After 24 h (M. hydrocarbonoclasticus, C. marina) or 48 h (P. batsensis, P. inhibens, M. luteus) incubation, optical density at 600 nm (OD600) was measured using a Molecular Devices Spectra Max 190. Growth inhibition percentages were calculated relatively to untreated bacterial species, using DMSO as a negative control. CuSO4 (0.16 μg/mL), a recognized antifouling agent, was used as positive control. All assays were conducted in triplicate, and the results represent the mean and standard error of the mean (SEM). Statistical analysis was carried out using GraphPad Prism 8.0.2 (San Diego, CA, United States), employing one-way ANOVA followed by Dunnett’s multiple comparisons test against the negative control.

SMILES | EC50 [Conf. Limits] anti-settlement [1] | EC50 [1] | Biofilm inhibition (%) M. hydrocarbonoclasticus (M. hydrocarbonoclasticus [2]; 0.98 µg/mL, 24 h) | Biofilm inhibition (%) M. hydrocarbonoclasticus (M. hydrocarbonoclasticus [2]; 1.95 µg/mL, 24 h) | Biofilm inhibition (%) M. hydrocarbonoclasticus (M. hydrocarbonoclasticus [2]; 3.91 µg/mL, 24 h) | Biofilm inhibition, up to (highest over tested concentrations) M. hydrocarbonoclasticus (M. hydrocarbonoclasticus [2]) | inhibition at 7.81 µg/mL (M. hydrocarbonoclasticus [2]; Marinobacter nauticus, 24 h) | inhibition at 15.6 µg/mL (M. hydrocarbonoclasticus [2]; Marinobacter nauticus, 24 h) | inhibition at 31.25 µg/mL (M. hydrocarbonoclasticus [2]; Marinobacter nauticus, 24 h) | Growth inhibition (%) M. hydrocarbonoclasticus (M. hydrocarbonoclasticus [3]; 0.98 µg/mL) | Growth inhibition (%) M. hydrocarbonoclasticus (M. hydrocarbonoclasticus [3]; 1.95 µg/mL) | Growth inhibition (%) M. hydrocarbonoclasticus (M. hydrocarbonoclasticus [3]; 3.91 µg/mL) | Growth inhibition (%) M. hydrocarbonoclasticus (M. hydrocarbonoclasticus [3]; 7.81 µg/mL) | Growth inhibition (%) M. hydrocarbonoclasticus (M. hydrocarbonoclasticus [3]; 15.60 µg/mL) | Growth inhibition (%) M. hydrocarbonoclasticus (M. hydrocarbonoclasticus [3]; 31.25 µg/mL) | inhibition at 0.98 µg/mL (M. hydrocarbonoclasticus [2]; Marinobacter nauticus, 0.98 µg/mL, 24 h) | inhibition at 1.95 µg/mL (M. hydrocarbonoclasticus [2]; Marinobacter nauticus, 1.95 µg/mL, 24 h) | inhibition at 3.91 µg/mL (M. hydrocarbonoclasticus [2]; Marinobacter nauticus, 3.91 µg/mL, 24 h) | inhibition at 31.25 µg/mL (M. hydrocarbonoclasticus [3]; Marinobacter nauticus, 31.25 µg/mL)
CC1=CCC[C@@H](C)[C@]1(C)CC[C@@]1(C)c2c(O)cc3c(c2O[C@@H]1C)C(=O)C=C(CO)C3=O (relative stereo) [compound 1, madeirone] | 1.755 (1.308–5.492) µg/mL | 1.76 mg/L (≈ 4.15 µM) | N.I. | N.I. | N.I. | up to 60% | 14.2 ± 3.6% | 33.9 ± 2.1% | 60.1 ± 0.5% | N.I. | N.I. | N.I. | N.I. | N.I. | N.I. | – | – | – | –
CC1=CCC[C@@H](C)[C@]1(C)CC[C@@]1(C)c2c(O)cc3c(c2O[C@@H]1C)C(=O)C(C)=C(O)C3=O [compound 2, neomarinone] | 0.119 (0.015–0.253) µg/mL | 0.12 mg/L (≈ 0.283 µM) | – | – | – | ≤ 56% | 54.4 ± 1.8% | 56.7 ± 1.5% | 29 ± 10.1% | N.I. | N.I. | N.I. | N.I. | N.I. | – | 49.2 ± 6.2% | 58.1 ± 1.6% | 54.5 ± 3.6% | 4.2 ± 0.8%
